Consider eight molecules from ChEMBL document CHEMBL1132758, “Synthesis and estrogenic activities of novel 7-thiosubstituted estratriene derivatives” (Bioorg Med Chem Lett, 2000).

Molecules are shown by their SMILES.

In experiment [1] the target is T1, Estrogen receptor (Homo sapiens, UniProt P03372).
T1 sequence (P03372 whole entry): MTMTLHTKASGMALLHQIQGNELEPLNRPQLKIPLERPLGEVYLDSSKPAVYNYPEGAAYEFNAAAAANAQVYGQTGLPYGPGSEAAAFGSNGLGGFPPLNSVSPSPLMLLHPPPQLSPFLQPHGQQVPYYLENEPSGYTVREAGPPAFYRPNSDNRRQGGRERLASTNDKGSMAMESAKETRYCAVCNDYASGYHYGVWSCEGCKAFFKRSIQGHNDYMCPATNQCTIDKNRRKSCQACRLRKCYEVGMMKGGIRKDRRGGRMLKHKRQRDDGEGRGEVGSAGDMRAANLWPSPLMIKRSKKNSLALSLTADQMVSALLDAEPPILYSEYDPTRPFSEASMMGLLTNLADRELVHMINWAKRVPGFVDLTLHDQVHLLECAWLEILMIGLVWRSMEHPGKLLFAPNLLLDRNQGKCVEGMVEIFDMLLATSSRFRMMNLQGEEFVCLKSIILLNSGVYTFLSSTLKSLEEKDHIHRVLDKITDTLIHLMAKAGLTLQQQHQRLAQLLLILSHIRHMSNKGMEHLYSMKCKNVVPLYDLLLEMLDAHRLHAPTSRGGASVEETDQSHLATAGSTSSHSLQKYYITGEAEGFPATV
Description: Agonist effect on transcriptional activation in MCF-7 cells expressing estrogen receptor alpha

For experiment [2], the target named is T2, Estrogen receptor beta (Homo sapiens, UniProt Q92731).
T2 sequence (Q92731 whole entry): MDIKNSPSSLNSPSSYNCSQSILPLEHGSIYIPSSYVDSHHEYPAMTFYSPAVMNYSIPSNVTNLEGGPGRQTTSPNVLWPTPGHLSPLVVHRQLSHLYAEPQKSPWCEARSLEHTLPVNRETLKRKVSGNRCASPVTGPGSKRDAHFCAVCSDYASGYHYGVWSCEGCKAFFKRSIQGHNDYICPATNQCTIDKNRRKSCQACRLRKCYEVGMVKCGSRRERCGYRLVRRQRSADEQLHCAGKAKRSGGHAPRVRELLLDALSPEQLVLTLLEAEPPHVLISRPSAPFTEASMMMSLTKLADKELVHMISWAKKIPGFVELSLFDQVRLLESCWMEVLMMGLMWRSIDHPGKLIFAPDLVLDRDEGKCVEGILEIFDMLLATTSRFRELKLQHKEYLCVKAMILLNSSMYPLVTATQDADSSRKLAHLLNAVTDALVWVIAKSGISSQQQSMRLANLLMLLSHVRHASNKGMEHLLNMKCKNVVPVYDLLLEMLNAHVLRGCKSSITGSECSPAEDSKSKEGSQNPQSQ
Experiment [3] deals with T1, Estrogen receptor. The source holds these as a separate data set.
Description: Antagonist effect on transcriptional activation in MCF-7 cells expressing estrogen receptor alpha
Experiment [4] addresses T1, Estrogen receptor. The source holds these as a separate data set.
Experiment [5] concerns the target T1, Estrogen receptor. Particulars: mcf7.
For experiment [6], the target named is T1, Estrogen receptor. The note with it: mcf7. This is another data set of the same source.
Experiment [7] addresses T2, Estrogen receptor beta. Kind of experiment: Displacement of [3H]17-beta-estradiol from human Estrogen receptor beta; Not active means no effect at < 1000 nM. A general note: Loss of bound radioactivity is the signal in a displacement assay; it reports binding, not function.

Molecule `CCCCN(C)C(=O)CCCCCCCCCCS[C@H]1[C@@H]2[C@H](CC[C@]3(C)[C@@H](O)CC[C@@H]23)c2ccc(O)cc2[C@H]1O` had an EC50 at Estrogen receptor [1] of 40 nM. In addition, the concentration for half-maximal inhibition (IC50) was 32 nM at Estrogen receptor beta [2], 316 nM on Estrogen receptor [3] and 32 nM against Estrogen receptor [4].

Molecule `C[C@]12CC[C@@H]3c4ccc(O)cc4C(O)[C@@H](Sc4ccc(Br)cc4)[C@H]3[C@@H]1CC[C@@H]2O` (some centres not stated) displayed an EC50 at Estrogen receptor [1] of 7 nM. Moreover, the figures for the IC50 against Estrogen receptor beta [2], on Estrogen receptor [5] and against Estrogen receptor [4] were 63 nM, “Not Active” and 397 nM, respectively.

Consider `CCCCN(C)C(=O)CCCCCCCCCCS[C@@H]1Cc2cc(O)ccc2[C@H]2CC[C@]3(C)[C@@H](O)CC[C@H]3[C@@H]21`, for which the half-maximal inhibitory concentration (IC50) against Estrogen receptor beta [2] came to 9 nM; at Estrogen receptor [3], 3.5 nM; at Estrogen receptor [4], 9 nM. Also, the 50% effective concentration (EC50) entry at Estrogen receptor [6] is “Not Active”.

Turning to `CC(=O)O[C@H]1CC[C@H]2[C@@H]3[C@H](Sc4ccc(Br)cc4)C(=O)c4cc(O)ccc4[C@H]3CC[C@]12C`, the IC50 result on Estrogen receptor [5] and at Estrogen receptor beta [7] was “Not Active” throughout.

For the molecule `CN(C)C(=O)/C=C/c1ccc(S[C@@H]2Cc3cc(O)ccc3[C@H]3CC[C@]4(C)[C@@H](O)CC[C@H]4[C@@H]32)cc1`, the EC50 at Estrogen receptor [1] stood at 173 nM. Further, the concentration for half-maximal inhibition (IC50) was 59 nM on Estrogen receptor beta [2], “Not Active” against Estrogen receptor [5] and 94 nM against Estrogen receptor [4].

`COc1ccc2c(c1)C[C@@H](Sc1ccc(OCCN3CCCCC3)cc1)[C@@H]1[C@@H]2CC[C@]2(C)[C@@H](O)CC[C@@H]12`: the 50% inhibitory concentration (IC50) result at Estrogen receptor beta [7] is “Not Active”.

Turning to `C[C@]12CC[C@@H]3c4ccc(O)cc4C[C@@H](Sc4ccc(/C=C/C(=O)O)cc4)[C@H]3[C@@H]1CC[C@@H]2O`, the midpoint of the response at Estrogen receptor [1], the EC50, lay at 13 nM. Besides, the IC50 against Estrogen receptor beta [2] is 21 nM; at Estrogen receptor [5], “Not Active”; on Estrogen receptor [4], 46 nM.

Turning to `CCCCN(C)C(=O)CCCCCCCCCCS[C@@H]1C(=O)c2cc(O)ccc2[C@H]2CC[C@]3(C)[C@@H](O)CC[C@H]3[C@H]12`, the EC50 at Estrogen receptor [1] is 28 nM. Besides, the half-maximal inhibitory concentration (IC50) turned out to be 37 nM at Estrogen receptor beta [2], 519 nM against Estrogen receptor [3] and 33 nM against Estrogen receptor [4].

The EC50 is the concentration that produces a half-maximal response. The term IC50 denotes the concentration that gives 50% inhibition.
